From US5512558A, “Nor-bile acid derivatives, processes for their preparation and the use of these compounds as medicaments” (Hoechst Aktiengesellschaft, priority 1993, dated 1996)

biological target: T1, Na+-dependent bile acid transportation system (brush border membrane vesicles of the ileum) (Oryctolagus cuniculus, UniProt Q28727); assay: Inhibition of [3H]-taurocholate uptake in brush border membrane vesicles of the ileum of rabbits; assay type: biochemical; settings: Na+-dependent part of [3H]-taurocholate uptake (difference Na-T-B minus K-T-B), rabbit ileal brush border membrane vesicles
T1 construct: Brush border membrane vesicles were prepared from the intestinal cells of the small intestine; from tissue; host or cells: brush border membrane vesicles from the terminal 7/10 of the small intestine (ileum) of male New Zealand rabbits
T1 sequence (Q28727 1-347): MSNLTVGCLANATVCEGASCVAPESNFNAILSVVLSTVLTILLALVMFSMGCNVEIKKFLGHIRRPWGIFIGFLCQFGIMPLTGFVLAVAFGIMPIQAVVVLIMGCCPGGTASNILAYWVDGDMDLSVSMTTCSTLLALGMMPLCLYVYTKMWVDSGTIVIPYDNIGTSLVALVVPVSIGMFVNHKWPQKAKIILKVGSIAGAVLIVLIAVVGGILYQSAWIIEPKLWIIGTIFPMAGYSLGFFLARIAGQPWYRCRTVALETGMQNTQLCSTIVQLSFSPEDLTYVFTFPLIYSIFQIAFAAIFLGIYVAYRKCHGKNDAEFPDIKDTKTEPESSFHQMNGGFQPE
Procedure: The compounds according to the invention were tested biologically by determination of the inhibition of ^3 H!-taurocholate uptake in the brush border membrane vesicle of the ileum of rabbits. The inhibition test was carried out as follows:
1. Preparation of brush border membrane vesicles from the ileum of rabbits
Brush border membrane vesicles were prepared from the intestinal cells of the small intestine by the so-called Mg^2+ precipitation method. Male New Zealand rabbits (2 to 2.5 kg body weight) were sacrificed by intravenous injection of 0.5 ml of an aqueous solution of 2.5 mg of tetracaine HCl, 100 T 61^R and 25 mg of mebezonium iodide. The small intestine was removed and rinsed with ice-cold physiological saline solution. The terminal 7/10 of the small intestine (measured in the oral-rectal direction, i.e. the terminal ileum, which contains the active Na^+ -dependent bile acid transportation system) was used for preparation of the brush border membrane vesicles. The intestines were frozen in plastic bags under nitrogen at -80° C. For preparation of the membrane vesicles, the frozen intestines were thawed at 30° C. in a water-bath. The mucosa was scraped off and suspended in 60 ml of ice-cold 12 mMTris/HCl buffer (pH 7.1)/300 mM mannitol, 5 mM EGTA/10 mg/l of phenylmethyl-sulfonyl fluoride/1 mg/l of trypsin inhibitor from soybean (32 U/mg)/0.5 mg/l of trypsin inhibitor from bovine lung (193 U/mg)/5 mg/l bacitracin. After dilution to 300 ml with ice-cold distilled water, the mixture was homogenized with an Ultraturrax (18-rod, IKA Werk Stuafen, FRG) for 3 minutes at 75% of the maximum power, while cooling with ice. After addition of 3 ml of 1M MgCl2 solution (final concentration 10 mM), the mixture was left to stand for exactly 1 minute at 0° C. By addition of Mg^2+, the cell membranes aggregate and precipitate, with the exception of the brush border membranes. After centrifugation at 3000×g (5000 rpm, SS-34 rotor) for 15 minutes, the precipitate is discarded and the supernatant, which contains the brush border membranes, is centrifuged at […] (15,000 rpm, SS-34 rotor) for 30 minutes. The supernatant was discarded and the precipitate was rehomogenized in 60 ml of 12 mMTris/HCl buffer (pH 7.1)/60 mM mannitol, 5 mM EGTA using a Potter Elvejhem homogenizer (Braun, Melsungen, 900 rpm, 10 strokes). After addition of 0.1 ml of 1M MgCl2 solution and an incubation time of 15 minutes at 0° C., the mixture was centrifuged again at 3000×g for 15 minutes. The supernatant was then centrifuged again at 46,000×g (15,000 rpm, SS-34 rotor) for 30 minutes. The precipitate was taken up in 30 ml of 10 mM Tris/Hepes buffer (pH 7.4)/300 mM mannitol and resuspended homogeneously by 20 strokes in a Potter Elvejhem homogenizer at 1000 rpm. After centrifugation at 48,000×g (20,000 rpm, SS-34 rotor) for 30 minutes, the precipitate was taken up in 0.5 to 2 ml of Tris/Hepes buffer (pH 7.4)/280 mM mannitol (final concentration 20 mg/ml) and resuspended with the aid of a tuberculin syringe with a 27 gauge needle. The vesicles were either used for transportation studies immediately after preparation, or stored at -196° C. in 4 mg portions in liquid nitrogen.
2. Inhibition of the Na^+ -dependent ^3 H!-taurocholate uptake in brush border membrane vesicles of the ileum
The uptake of substrates in the brush border membrane vesicles described above was determined by means of the so-called membrane filtration technique. 10 μl of the vesicle suspension (100 μg of protein) were pipetted as drops onto the wall of a polystyrene incubation tube (11×70 mm) which contained the incubation medium with the corresponding ligands (90 μl). […]

Row | Structure (SMILES) | quotient of the IC50Na values of the reference substance taurochenodeoxycholate (TCDC) and the test substance
1 | C[C@H](CCC(=O)O)[C@H]1CC[C@H]2[C@@H]3[C@H](O)C[C@@H]4C[C@@H](NC(=O)C[C@@H](C)[C@H]5CC[C@H]6[C@@H]7[C@H](O)C[C@@H]8C[C@H](O)CC[C@]8(C)[C@H]7C[C@H](O)[C@]56C)CC[C@]4(C)[C@H]3C[C@H](O)[C@]12C [Example 32] | 0.65
2 | C[C@H](CC(=O)O)[C@H]1CC[C@H]2[C@@H]3[C@H](O)C[C@@H]4C[C@@H](NC(=O)[C@@H](C)[C@H]5CC[C@H]6[C@@H]7[C@H](O)C[C@@H]8C[C@H](O)CC[C@]8(C)[C@H]7C[C@H](O)[C@]56C)CC[C@]4(C)[C@H]3C[C@H](O)[C@]12C [Example 69] | 0.86
3 | C[C@H](CCC(=O)O)[C@H]1CC[C@H]2[C@@H]3[C@H](O)C[C@@H]4C[C@@H](OCCOCCNC(=O)[C@@H](C)[C@H]5CC[C@H]6[C@@H]7[C@H](O)C[C@@H]8C[C@H](O)CC[C@]8(C)[C@H]7C[C@H](O)[C@]56C)CC[C@]4(C)[C@H]3C[C@H](O)[C@]12C [Example 41] | 0.58
4 | C[C@H](CCC(=O)NCC(=O)O)[C@H]1CC[C@H]2[C@@H]3[C@H](O)C[C@@H]4C[C@@H](OCCOCCNC(=O)C[C@@H](C)[C@H]5CC[C@H]6[C@@H]7[C@H](O)C[C@@H]8C[C@H](O)CC[C@]8(C)[C@H]7C[C@H](O)[C@]56C)CC[C@]4(C)[C@H]3C[C@H](O)[C@]12C [Example 57] | 0.34
5 | C[C@H](CCC(=O)N[C@H]1CC[C@@]2(C)[C@@H](C1)C[C@@H](O)[C@@H]1[C@@H]2C[C@H](O)[C@]2(C)[C@@H]([C@H](C)CC(=O)O)CC[C@@H]12)[C@H]1CC[C@H]2[C@@H]3[C@H](O)C[C@@H]4C[C@H](O)CC[C@]4(C)[C@H]3CC[C@]12C [Example 65] | 0.64
6 | CC(C(=O)N[C@H]1CC[C@@]2(C)[C@@H](C1)C[C@@H](O)[C@@H]1[C@@H]2CC[C@]2(C)[C@@H]([C@H](C)CCC(=O)O)CC[C@@H]12)[C@H]1CC[C@H]2[C@@H]3[C@H](O)C[C@@H]4C[C@H](O)CC[C@]4(C)[C@H]3C[C@H](O)[C@]12C (stereo partly shown) [Example 43] | 0.78
7 | C[C@H](CCC(=O)O)[C@H]1CC[C@H]2[C@@H]3[C@H](O)C[C@@H]4C[C@@H](NC(=O)C[C@@H](C)[C@H]5CC[C@H]6[C@@H]7[C@H](O)C[C@@H]8C[C@H](O)CC[C@]8(C)[C@H]7C[C@H](O)[C@]56C)CC[C@]4(C)[C@H]3CC[C@]12C [Example 36] | 1.14
